What all share (type): cell-based
The test system of experiment [1] is MOLM-13. The experiment can be described thus: Proliferation inhibition (CellTiter-Glo) in MOLM-13 cells. As to conditions: Homo sapiens, 96 h, MOLM-13 AML cells, heterozygous FLT3-ITD, IC50 (4 days). An excerpt: (§1) The Proliferation Inhibitory Effect was Investigated in Human AML Cell Lines MOLM-13 (AddexBio: C0003003) [REF: Pubmed: 9305600] and MV-4-11 (ATCC: CRL-9591) [REF PMID: 3496132], and CML cell line […] (ATCC: CRL-3343) [REF PMID: 163658]. Molm-13 is heterozygous for FLT3-ITD mutation, while MV4-11 is homozygous for FLT3-ITD [PMID: 12529668]. […] Cells were maintained in RPMI-1640 medium (ThermoFisher catalog no. 61870036) supplemented with 10% of Heat Inactivated FBS (ThermoFisher catalog no.A31605) and 1% Pen-Strep (Thermofisher catalog no. 10378016) and cultured at 37° C. in a humidified incubator with 5% CO2. Cell lines were […], and the cells were maintained in a range 70%-80% confluency.
(§2) ATP is present in all metabolically active cells and is considered as a marker for cell viability and proliferation. Metabolic cell activity was determined using the CellTiter-Glo kit (Promega catalog no. G7572), an ATP monitoring system based on the production of luminescence by the reaction of ATP with added UltraGlo® recombinant luciferase (Kawano et al., 2016, PLOS One, 8; 11(7):e0158888), according to the supplier's experimental recommendations. The assay was based on a 96 well plate format.
(§3) Test compounds were dissolved at 10 mM in DMSO (Sigma catalog no. D8418; purity 299.9%) and stored at −20° C. Eight concentrations of test compound were assessed in duplicate in an individual test occasion in parallel in the selected cell lines. Gilteratinib and FF-10101 were used as reference compounds and tested in duplicate at eight concentrations. 100% of proliferation is represented by the untreated cells (0.2% DMSO).
(§4) On the day of the experiment (TO), cells were quantified with the cell viability analyser NucleoCounter (Chemometec NC-200) and diluted with fresh medium to obtain the cell density of about 10,000 cells per 200 μL medium. 200 μL of cell suspension were added into wells in the 96 well plate.
(§5) After 2 hours from seeding cells, compounds were added using a D300e compound dispenser (Life Sciences Tecan D300) at desired concentrations with shaking between each compound dispensed. Cell plates containing 200 μL/well suspension were incubated at 37° C. in a humidified incubator with […].
(§6) […] Contents were mixed for 5 min on an orbital shaker to induce cell lysis, and then incubated at room temperature for an additional 10 min in the dark to stabilize the luminescent signal. Luminescence was read by using a GloMax GM300 plate reader (Promega) using the luminescence for 96 well plate standard protocol.
(§7) Results were analysed by GraphPad (Prism) and IC50 values were calculated by non-linear regression using four parameter-logistic equation.

For experiment [2], the system named is K-562. The experiment can be described thus: Proliferation inhibition (CellTiter-Glo) in K-562 cells. The following applies: Homo sapiens, K562, 96 h, K-562 CML cells, no FLT3 mutations, IC50 (4 days).
Text: as §1, §2, §3, §4, §5, §6, §7
In general terms: Cellular ATP, detected with luciferase, serves as a proxy for viable cell number.

The test system of experiment [3] is MV-4-11. The experiment can be described thus: Proliferation inhibition (CellTiter-Glo) in MV-4-11 cells. As to conditions: Homo sapiens, MV4-11, 96 h, MV-4-11 AML cells, homozygous FLT3-ITD, IC50 (4 days).
Text: as §1, §2, §3, §4, §5, §6, §7

`CCc1nc(C(N)=O)c(Nc2cccc(C#CCNC(=O)[C@H](C)N(C)C(=O)/C=C/CN(C)C)c2)nc1NC1CCOCC1` [Compound 18, (S,E)-3-((3-(3-(2-(4-(Dimethylamino)-N-methylbut-2-enamido)propanamido)prop-1-yn-1-yl)phenyl)amino)-6-ethyl-5-((tetrahydro-2H-pyran-4-yl)amino)pyrazine-2-carboxamide]: the results for the IC50 in experiment [1], in experiment [2] and in experiment [3] were 1 to 10 nM, above 500 nM and below 1 nM, respectively.

As for `C=CS(=O)(=O)N(C)[C@@H](C)C(=O)NCC#Cc1cccc(Nc2nc(NC3CCOCC3)c(CC)nc2C(N)=O)c1` [Compound 19, (S)-6-Ethyl-3-((3-(3-(2-(N-methylvinylsulfonamido)propanamido)prop-1-yn-1-yl)phenyl)amino)-5-((tetrahydro-2H-pyran-4-yl)amino)pyrazine-2-carboxamide], the IC50 in experiment [1], in experiment [2] and in experiment [3] was above 500 nM throughout.

As to `C=CC(=O)NCCNc1cc(Nc2nc(NC3CCOCC3)c(CC)nc2C(N)=O)ccn1` [Compound 20, 3-((2-((2-Acrylamidoethyl)amino)pyridin-4-yl)amino)-6-ethyl-5-((tetrahydro-2H-pyran-4-yl)amino)pyrazine-2-carboxamide], the IC50 (as a rule, the concentration that inhibits the measured activity by half) in experiment [1] is 100 to 500 nM; in experiment [2], above 500 nM; in experiment [3] it was 10 to 100 nM.

As for `C#CC(=O)NCCNc1cc(Nc2nc(NC3CCOCC3)c(CC)nc2C(N)=O)ccn1` [Compound 21, 6-Ethyl-3-((2-((2-propiolamidoethyl)amino)pyridin-4-yl)amino)-5-((tetrahydro-2H-pyran-4-yl)amino)pyrazine-2-carboxamide], the IC50 in experiment [1] lay in the range of 10 to 100 nM; in experiment [2] it was 100 to 500 nM; in experiment [3], 10 to 100 nM.

With `CC#CC(=O)NCCNc1cc(Nc2nc(NC3CCOCC3)c(CC)nc2C(N)=O)ccn1` [Compound 22, 3-((2-((2-(But-2-ynamido)ethyl)amino)pyridin-4-yl)amino)-6-ethyl-5-((tetrahydro-2H-pyran-4-yl)amino)pyrazine-2-carboxamide], the IC50 in experiment [1] is 10 to 100 nM; in experiment [2], above 500 nM; in experiment [3], 10 to 100 nM.

For the compound `C=CS(=O)(=O)NCCNc1cc(Nc2nc(NC3CCOCC3)c(CC)nc2C(N)=O)ccn1` [Compound 23, 6-Ethyl-5-((tetrahydro-2H-pyran-4-yl)amino)-3-((2-((2-(vinylsulfonamido)ethyl)amino)pyridin-4-yl)amino)pyrazine-2-carboxamide], the values for the IC50 in experiment [1], in experiment [2] and in experiment [3] were 10 to 100 nM, 100 to 500 nM and 10 to 100 nM, respectively.

In the case of `C=CC(=O)NCCCNc1cc(Nc2nc(NC3CCOCC3)c(CC)nc2C(N)=O)ccn1` [Compound 24, 3-((2-((3-Acrylamidopropyl)amino)pyridin-4-yl)amino)-6-ethyl-5-((tetrahydro-2H-pyran-4-yl)amino)pyrazine-2-carboxamide], the figures for the IC50 in experiment [1], in experiment [2] and in experiment [3] were 10 to 100 nM, above 500 nM and 10 to 100 nM, respectively.

Turning to `C#CC(=O)NCCCNc1cc(Nc2nc(NC3CCOCC3)c(CC)nc2C(N)=O)ccn1` [Compound 25, 6-Ethyl-3-((2-((3-propiolamidopropyl)amino)pyridin-4-yl)amino)-5-((tetrahydro-2H-pyran-4-yl)amino)pyrazine-2-carboxamide], the 50% inhibitory concentration (IC50) fell in the range of 10 to 100 nM in experiment [1], 100 to 500 nM in experiment [2] and 1 to 10 nM in experiment [3].

As to `CC#CC(=O)NCCCNc1cc(Nc2nc(NC3CCOCC3)c(CC)nc2C(N)=O)ccn1` [Compound 26, 3-((2-((3-(But-2-ynamido)propyl)amino)pyridin-4-yl)amino)-6-ethyl-5-((tetrahydro-2H-pyran-4-yl)amino)pyrazine-2-carboxamide], the IC50 is 100 to 500 nM in experiment [1], above 500 nM in experiment [2] and 10 to 100 nM in experiment [3].

The record behind these values is US20250136558A1, “PYRAZINE COMPOUNDS AS IRREVERSIBLE INHIBITORS OF FLT3” (BIOMEA FUSION, INC., priority 2021, published 2025).
